Two compounds from paper PMC10412597, “Small molecule branched-chain ketoacid dehydrogenase kinase (BDK) inhibitors with opposing effects on BDK protein levels” (Nature Communications, 2023) can be followed below.

One experiment deals with TTK (Homo sapiens, UniProt P33981). Also on record: Invitrogen Lantha screen kinase binding, per cent inhibition of binding. The note with it: 10 µM, binder. The protocol:
(§1) To discover a potent and selective BDK inhibitor, a subset of the Pfizer compound collection was screened. […] Off target activity was assessed in both CEREP and kinase panels (Supplementary Tables 2, 3).

The next experiment deals with MYLK (Homo sapiens, UniProt Q15746). Further details: Invitrogen Lantha screen kinase binding, per cent inhibition of binding. The note with it: 10 µM, binder. The procedure: as §1
For experiment [1], the target named is T1, Protein kinase, AMP-activated, alpha 1 beta 1 gamma 2 complex (Homo sapiens, UniProt Q13131+Q9UGJ0+Q9Y478).
T1 construct: gene PRKAA1
Further details: Invitrogen Lantha screen kinase binding, per cent inhibition of binding. The note with it: 10 µM, binder. The procedure:
as §1

Experiment [2] addresses TGF-beta activated kinase 1/MAP3K7 binding protein 1 (MAP3K7IP1) (Homo sapiens, UniProt O43318). Also on record: Invitrogen Lantha screen kinase binding, per cent inhibition of binding. The note with it: 10 µM, binder. The protocol:
as §1

Another experiment concerns the target CAMKK2 (Homo sapiens, UniProt Q96RR4). Also on record: Invitrogen Lantha screen kinase binding, per cent inhibition of binding. The conditions noted are these: 10 µM, binder. The procedure: as §1
The target in experiment [3] is T2, Dual-specificity tyrosine-(Y)-phosphorylation regulated kinase 2 (DYRK) (Homo sapiens, UniProt Q92630).
T2 construct: gene DYRK2
Also on record: Invitrogen Lantha screen kinase binding, per cent inhibition of binding. The note with it: 10 µM, binder. The protocol:
as §1

The target of the next experiment is MKNK2 (Homo sapiens, UniProt Q9HBH9). Also on record: Invitrogen Lantha screen kinase binding, per cent inhibition of binding. The conditions noted are these: 10 µM, binder. The procedure: as §1
The target in a further experiment is MAP3K11 (Homo sapiens, UniProt Q16584). Further details: Invitrogen Lantha screen kinase binding, per cent inhibition of binding. The conditions noted are these: 10 µM, binder. The protocol:
as §1

Another experiment has as its target TGFBR2 (Homo sapiens, UniProt P37173). Also on record: Invitrogen Lantha screen kinase binding, per cent inhibition of binding. The conditions noted are these: 10 µM, binder. The protocol: as §1
The target of the next experiment is MAPK15 (Homo sapiens, UniProt Q8TD08). Also on record: Invitrogen Lantha screen kinase binding, per cent inhibition of binding. The conditions noted are these: 10 µM, binder. The protocol:
as §1

The target in the next experiment is PKN2 (Homo sapiens, UniProt Q16513). Further details: Invitrogen Lantha screen kinase binding, per cent inhibition of binding. The note with it: 10 µM, binder. The protocol:
as §1

The target in a further experiment is T3, Delta Opioid Receptor (Homo sapiens, UniProt P41143).
T3 construct: gene OPRD1
Also on record: Cerep Bioprint off-target panel, functional receptor agonism or antagonism. The conditions noted are these: agonist. The method in brief: (§2)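 Off-target profiling of BDK inhibitor candidates: the receptor targets were run in a CEREP panel and ABL1 in a kinase panel.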

The target of another experiment is T4, Cannabinoid CB1 (Homo sapiens, UniProt P21554).
T4 construct: gene CNR1
Further details: Cerep Bioprint off-target panel, functional receptor agonism or antagonism. The method in brief: as §2

The target of experiment [4] is T5, Adrenergic Alpha 1a Adrenoceptor (Homo sapiens, UniProt P35348).
T5 construct: gene ADRA1A
T5 sequence (P35348 1-466): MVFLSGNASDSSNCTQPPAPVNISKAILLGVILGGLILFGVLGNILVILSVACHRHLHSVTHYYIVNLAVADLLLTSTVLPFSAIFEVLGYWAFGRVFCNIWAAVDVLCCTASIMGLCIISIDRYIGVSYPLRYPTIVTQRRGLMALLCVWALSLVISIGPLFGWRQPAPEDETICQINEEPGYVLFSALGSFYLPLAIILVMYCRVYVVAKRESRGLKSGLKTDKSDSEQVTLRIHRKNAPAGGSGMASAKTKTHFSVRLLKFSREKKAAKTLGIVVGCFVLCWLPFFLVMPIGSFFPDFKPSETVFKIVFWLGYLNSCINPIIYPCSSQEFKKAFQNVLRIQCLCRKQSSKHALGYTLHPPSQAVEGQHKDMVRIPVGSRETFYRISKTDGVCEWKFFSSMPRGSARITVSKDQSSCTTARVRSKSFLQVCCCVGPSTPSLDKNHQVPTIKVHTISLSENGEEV
Also on record: Cerep Bioprint off-target panel, functional receptor agonism or antagonism. A digest of the protocol: as §2

Another experiment has as its target T6, Vasopressin 1a (Homo sapiens, UniProt P37288).
T6 construct: gene AVPR1A
Also on record: Cerep Bioprint off-target panel, functional receptor agonism or antagonism. The conditions noted are these: agonist. The method in brief:
as §2

Another experiment concerns the target AURKB (Homo sapiens, UniProt Q96GD4). Further details: Invitrogen kinase panel, per cent inhibition of kinase activity. The conditions noted are these: 10 µM, inhibitor. The protocol:
as §1

The next experiment concerns the target CAMK2A (Homo sapiens, UniProt Q9UQM7). Further details: Invitrogen kinase panel, per cent inhibition of kinase activity. The conditions noted are these: 10 µM, inhibitor. The procedure: as §1
The target in a further experiment is T7, PPAR-gamma (Homo sapiens, UniProt P37231).
T7 construct: gene PPARG
T7 sequence (P37231 1-505): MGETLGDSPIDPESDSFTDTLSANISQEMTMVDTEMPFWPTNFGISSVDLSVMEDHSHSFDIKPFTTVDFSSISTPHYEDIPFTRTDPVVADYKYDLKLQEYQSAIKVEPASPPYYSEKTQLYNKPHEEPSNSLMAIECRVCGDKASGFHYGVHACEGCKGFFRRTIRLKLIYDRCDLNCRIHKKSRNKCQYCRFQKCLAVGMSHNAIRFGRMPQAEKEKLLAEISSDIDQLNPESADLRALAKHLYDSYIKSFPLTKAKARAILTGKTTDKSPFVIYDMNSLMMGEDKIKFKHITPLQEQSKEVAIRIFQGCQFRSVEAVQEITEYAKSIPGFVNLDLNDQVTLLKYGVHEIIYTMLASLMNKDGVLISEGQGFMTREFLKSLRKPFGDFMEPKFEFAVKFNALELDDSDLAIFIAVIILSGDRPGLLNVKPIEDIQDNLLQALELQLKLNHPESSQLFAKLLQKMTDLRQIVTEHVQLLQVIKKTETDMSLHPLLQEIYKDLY
The experiment in a line: biochemical. Also on record: Cerep Bioprint off-target panel, ligand binding inhibition. The procedure:
as §1

pIC50: −log10 of the molar value. Like-named read-outs stand apart in the source and are kept apart here.

T4 sequence (P21554 whole entry): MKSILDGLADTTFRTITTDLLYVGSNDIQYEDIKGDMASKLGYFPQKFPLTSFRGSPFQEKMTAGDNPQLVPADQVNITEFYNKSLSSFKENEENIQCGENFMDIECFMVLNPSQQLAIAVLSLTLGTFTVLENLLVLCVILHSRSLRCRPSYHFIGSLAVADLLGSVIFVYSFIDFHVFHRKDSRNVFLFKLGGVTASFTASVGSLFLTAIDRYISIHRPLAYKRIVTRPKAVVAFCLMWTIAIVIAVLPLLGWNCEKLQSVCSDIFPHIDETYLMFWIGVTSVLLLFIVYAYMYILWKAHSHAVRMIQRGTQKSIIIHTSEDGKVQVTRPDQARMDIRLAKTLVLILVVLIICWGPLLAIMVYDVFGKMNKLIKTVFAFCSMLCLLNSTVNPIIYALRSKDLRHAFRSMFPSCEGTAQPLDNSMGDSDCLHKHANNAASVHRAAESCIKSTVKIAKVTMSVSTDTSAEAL
Sequence of CAMK2A (Q9UQM7 whole entry): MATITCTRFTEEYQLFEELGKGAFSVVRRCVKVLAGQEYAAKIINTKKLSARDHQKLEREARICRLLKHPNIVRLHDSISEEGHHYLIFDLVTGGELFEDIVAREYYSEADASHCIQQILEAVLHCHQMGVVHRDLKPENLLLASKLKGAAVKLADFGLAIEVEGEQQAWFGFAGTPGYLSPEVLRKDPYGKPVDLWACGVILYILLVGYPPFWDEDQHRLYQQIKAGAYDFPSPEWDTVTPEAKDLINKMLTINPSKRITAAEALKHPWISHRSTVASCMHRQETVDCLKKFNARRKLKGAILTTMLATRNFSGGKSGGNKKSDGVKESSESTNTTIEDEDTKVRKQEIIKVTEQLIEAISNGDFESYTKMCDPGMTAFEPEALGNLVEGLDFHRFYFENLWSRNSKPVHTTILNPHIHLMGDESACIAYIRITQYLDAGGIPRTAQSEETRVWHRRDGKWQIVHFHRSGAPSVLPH
Sequence of MAP3K11 (Q16584 whole entry): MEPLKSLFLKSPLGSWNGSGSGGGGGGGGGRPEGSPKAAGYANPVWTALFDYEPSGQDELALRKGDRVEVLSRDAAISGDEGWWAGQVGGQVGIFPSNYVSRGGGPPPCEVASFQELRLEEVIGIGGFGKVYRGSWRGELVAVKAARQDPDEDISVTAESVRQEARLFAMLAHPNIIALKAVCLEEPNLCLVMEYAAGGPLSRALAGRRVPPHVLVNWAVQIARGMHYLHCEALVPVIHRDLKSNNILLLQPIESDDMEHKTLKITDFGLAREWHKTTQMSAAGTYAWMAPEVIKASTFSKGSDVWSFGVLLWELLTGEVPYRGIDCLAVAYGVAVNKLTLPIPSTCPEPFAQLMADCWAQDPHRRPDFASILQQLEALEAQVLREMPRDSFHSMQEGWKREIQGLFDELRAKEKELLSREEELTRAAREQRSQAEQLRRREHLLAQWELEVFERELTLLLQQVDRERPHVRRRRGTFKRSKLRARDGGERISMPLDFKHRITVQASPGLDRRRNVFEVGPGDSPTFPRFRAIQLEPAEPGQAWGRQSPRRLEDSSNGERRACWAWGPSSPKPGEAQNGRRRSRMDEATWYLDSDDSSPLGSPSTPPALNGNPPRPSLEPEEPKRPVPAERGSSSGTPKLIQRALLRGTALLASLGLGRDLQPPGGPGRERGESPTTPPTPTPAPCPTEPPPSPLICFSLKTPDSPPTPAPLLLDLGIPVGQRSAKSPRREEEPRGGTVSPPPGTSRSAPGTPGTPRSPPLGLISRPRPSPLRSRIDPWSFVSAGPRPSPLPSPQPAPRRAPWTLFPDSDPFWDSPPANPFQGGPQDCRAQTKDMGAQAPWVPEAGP
Sequence of TTK (P33981 whole entry): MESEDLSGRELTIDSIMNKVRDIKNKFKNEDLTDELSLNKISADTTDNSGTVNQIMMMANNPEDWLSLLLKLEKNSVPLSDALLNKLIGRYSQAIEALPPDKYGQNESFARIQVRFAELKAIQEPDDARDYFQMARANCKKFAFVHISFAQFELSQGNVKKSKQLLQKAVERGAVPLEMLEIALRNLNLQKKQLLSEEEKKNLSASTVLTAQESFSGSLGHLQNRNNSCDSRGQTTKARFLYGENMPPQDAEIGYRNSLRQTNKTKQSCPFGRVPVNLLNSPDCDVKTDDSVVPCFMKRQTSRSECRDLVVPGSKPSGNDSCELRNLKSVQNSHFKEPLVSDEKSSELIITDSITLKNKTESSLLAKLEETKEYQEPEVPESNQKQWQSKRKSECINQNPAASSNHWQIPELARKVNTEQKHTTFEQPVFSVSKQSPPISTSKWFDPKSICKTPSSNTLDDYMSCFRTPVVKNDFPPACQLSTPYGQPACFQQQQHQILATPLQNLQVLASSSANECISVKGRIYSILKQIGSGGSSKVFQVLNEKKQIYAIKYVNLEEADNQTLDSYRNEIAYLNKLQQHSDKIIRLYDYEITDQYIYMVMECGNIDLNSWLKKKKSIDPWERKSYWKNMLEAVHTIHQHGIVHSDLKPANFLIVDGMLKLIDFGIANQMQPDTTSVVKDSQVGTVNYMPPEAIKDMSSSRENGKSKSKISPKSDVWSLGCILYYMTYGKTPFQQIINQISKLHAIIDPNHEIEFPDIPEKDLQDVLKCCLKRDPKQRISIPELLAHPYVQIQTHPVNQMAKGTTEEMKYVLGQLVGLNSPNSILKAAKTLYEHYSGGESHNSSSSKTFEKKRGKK
Sequence of AURKB (Q96GD4 whole entry): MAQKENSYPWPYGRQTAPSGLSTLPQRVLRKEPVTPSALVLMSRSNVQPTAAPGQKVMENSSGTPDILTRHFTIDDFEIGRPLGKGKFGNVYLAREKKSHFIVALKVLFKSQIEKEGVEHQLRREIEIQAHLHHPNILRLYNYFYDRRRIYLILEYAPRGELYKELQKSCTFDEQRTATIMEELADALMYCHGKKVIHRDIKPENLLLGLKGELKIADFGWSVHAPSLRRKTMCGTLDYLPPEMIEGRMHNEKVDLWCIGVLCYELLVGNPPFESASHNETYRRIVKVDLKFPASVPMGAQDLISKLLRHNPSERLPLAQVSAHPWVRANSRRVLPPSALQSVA
Sequence of TGFBR2 (P37173 whole entry): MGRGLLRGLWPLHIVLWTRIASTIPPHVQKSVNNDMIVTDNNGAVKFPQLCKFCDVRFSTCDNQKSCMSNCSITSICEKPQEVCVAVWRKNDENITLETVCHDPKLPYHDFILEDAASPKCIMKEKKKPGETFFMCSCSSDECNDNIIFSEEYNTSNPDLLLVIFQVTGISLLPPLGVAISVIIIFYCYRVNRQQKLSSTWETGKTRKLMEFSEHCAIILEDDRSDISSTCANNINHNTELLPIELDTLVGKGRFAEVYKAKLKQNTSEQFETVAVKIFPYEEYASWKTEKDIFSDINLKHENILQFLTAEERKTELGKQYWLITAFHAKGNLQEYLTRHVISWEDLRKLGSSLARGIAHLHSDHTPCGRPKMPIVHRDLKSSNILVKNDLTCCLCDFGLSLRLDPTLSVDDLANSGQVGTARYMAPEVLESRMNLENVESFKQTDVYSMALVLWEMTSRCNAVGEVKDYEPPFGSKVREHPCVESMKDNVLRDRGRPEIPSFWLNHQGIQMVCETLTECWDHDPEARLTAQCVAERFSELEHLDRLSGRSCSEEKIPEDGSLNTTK
Sequence of MKNK2 (Q9HBH9 whole entry): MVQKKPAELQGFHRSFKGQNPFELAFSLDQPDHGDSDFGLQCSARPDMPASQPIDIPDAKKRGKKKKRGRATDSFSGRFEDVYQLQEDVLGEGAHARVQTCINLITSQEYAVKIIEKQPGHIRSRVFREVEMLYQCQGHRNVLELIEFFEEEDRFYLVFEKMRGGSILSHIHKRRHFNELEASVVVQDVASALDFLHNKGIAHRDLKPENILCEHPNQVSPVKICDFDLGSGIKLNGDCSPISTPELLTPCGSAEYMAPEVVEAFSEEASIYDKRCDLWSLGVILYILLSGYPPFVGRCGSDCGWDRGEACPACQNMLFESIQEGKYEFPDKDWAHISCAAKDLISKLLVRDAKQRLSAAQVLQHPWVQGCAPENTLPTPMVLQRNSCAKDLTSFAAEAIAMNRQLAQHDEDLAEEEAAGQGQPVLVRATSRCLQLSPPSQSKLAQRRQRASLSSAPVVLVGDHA
Sequence of CAMKK2 (Q96RR4 whole entry): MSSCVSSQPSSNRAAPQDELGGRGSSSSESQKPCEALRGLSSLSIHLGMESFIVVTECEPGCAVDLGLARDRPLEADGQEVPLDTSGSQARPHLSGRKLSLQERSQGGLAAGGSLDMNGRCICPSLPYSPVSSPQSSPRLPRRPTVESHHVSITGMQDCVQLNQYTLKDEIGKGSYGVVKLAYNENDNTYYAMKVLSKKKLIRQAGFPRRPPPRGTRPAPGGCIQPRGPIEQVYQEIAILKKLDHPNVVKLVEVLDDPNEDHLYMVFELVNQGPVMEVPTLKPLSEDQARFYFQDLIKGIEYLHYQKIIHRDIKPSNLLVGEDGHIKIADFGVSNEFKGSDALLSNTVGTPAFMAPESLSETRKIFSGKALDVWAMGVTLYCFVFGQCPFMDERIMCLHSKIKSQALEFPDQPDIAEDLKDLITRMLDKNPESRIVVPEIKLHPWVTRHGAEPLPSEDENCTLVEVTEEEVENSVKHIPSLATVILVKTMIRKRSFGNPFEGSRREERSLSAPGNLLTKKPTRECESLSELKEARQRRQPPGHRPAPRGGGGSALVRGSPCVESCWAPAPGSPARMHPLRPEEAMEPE
T3 sequence (P41143 whole entry): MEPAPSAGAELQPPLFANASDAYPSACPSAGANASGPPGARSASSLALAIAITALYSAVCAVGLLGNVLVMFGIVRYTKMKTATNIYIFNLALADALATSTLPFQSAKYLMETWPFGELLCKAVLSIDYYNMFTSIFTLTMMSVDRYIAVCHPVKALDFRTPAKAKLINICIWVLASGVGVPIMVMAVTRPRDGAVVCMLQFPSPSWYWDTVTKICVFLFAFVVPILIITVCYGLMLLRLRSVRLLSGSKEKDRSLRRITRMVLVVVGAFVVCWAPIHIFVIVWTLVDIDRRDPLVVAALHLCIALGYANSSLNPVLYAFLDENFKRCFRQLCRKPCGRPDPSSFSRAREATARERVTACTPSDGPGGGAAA

The pIC50 is the IC50 on a negative log10 scale, so that one unit is a factor of ten. `O=C(O)c1sc2cc(F)sc2c1Cl` [PF-07208254, 3-chloro-5-fluorothieno[3,2-b]thiophene-2-carboxylic acid]: the “Lantha Binding % Inhibition PF-07208254” value stood at 16.2% at TTK; 3.3% at MYLK; 5.9% in experiment [1]; 2.6% in [2]; 7.8% at CAMKK2; 29.2% in experiment [3]. For the same compound, the “Lantha Binding % Inhibition PF-07208254” value on MKNK2 turned out to be 11.8%; on MAP3K11 it was 6.8%; at TGFBR2, 15.9%; on MAPK15, 18.3%; on PKN2, 8.1%. Besides, the “% (agonism) PF-07208254” value on Delta Opioid Receptor (100 µM) was -2%; at Cannabinoid CB1 (100 µM, agonist), 55%; in experiment [4] (100 µM, agonist), 8%; at Vasopressin 1a (100 µM), 16%. For the same compound, the “% Inhibition (antagonism) PF-07208254” value at Cannabinoid CB1 (100 µM, antagonist) was -10%; in experiment [4] (100 µM, antagonist) it was 21%. For the same compound, the “ATP = Km % Inhibition PF-07208254” value was found to be 3.0% at AURKB and 6.8% at CAMK2A. The “ATP = 1 mM % Inhibition PF-07208254” value at CAMK2A is reported as -0.3%. At PPAR-gamma, the pIC50 was 4.07.

On to `CCC1(COc2ccc(-c3csc(-c4ccccc4C(=O)O)n3)cn2)CC1` [PF-07247685, 2-(4-{6-[(1-ethylcyclopropyl)methoxy]pyridin-3-yl}-1,3-thiazol-2-yl)benzoic acid], for which the “Lantha Binding % Inhibition PF-07247685” value is given as 3.6% at TTK; 1.3% at MYLK; 0.5% in experiment [1]; -1.9% in experiment [2]; 1.8% on CAMKK2; 1.9% in experiment [3]. In addition, the “Lantha Binding % Inhibition PF-07247685” value on MKNK2 is 1.2%; on MAP3K11, -2.2%; at TGFBR2, 15.1%; at MAPK15, 2.4%; on PKN2, -1.7%. In addition, the “% (agonism) PF-07247685” value on Delta Opioid Receptor (10 µM) is reported as -1%; on Cannabinoid CB1 (10 µM, agonist) it was 39%; in experiment [4] (10 µM, agonist), 1%; on Vasopressin 1a (10 µM), -1%. The “% Inhibition (antagonism) PF-07247685” value on Cannabinoid CB1 (10 µM, antagonist) is recorded as -4%; in [4] (10 µM, antagonist), 14%. Besides, the “ATP = Km % Inhibition PF-07247685” value at AURKB worked out at 17.3%; on CAMK2A, 2.8%. The “ATP = 1 mM % Inhibition PF-07247685” value on CAMK2A is listed as 3.5%. Besides, at PPAR-gamma (read-out: IC50 binding PF-07247685), the pIC50 was 4.30.
